In general, IC50 refers to the concentration needed to halve the response being measured. Higher therefore signals weaker potency. One may read the inhibition as the percentage by which the read-out fell short of the control. A higher inhibition goes with a response far below the control.

The structures appear in SMILES notation.

The target in assay [1] is T1, Nitric oxide synthase, inducible (Mus musculus, UniProt P29477).
T1 sequence (P29477 whole entry): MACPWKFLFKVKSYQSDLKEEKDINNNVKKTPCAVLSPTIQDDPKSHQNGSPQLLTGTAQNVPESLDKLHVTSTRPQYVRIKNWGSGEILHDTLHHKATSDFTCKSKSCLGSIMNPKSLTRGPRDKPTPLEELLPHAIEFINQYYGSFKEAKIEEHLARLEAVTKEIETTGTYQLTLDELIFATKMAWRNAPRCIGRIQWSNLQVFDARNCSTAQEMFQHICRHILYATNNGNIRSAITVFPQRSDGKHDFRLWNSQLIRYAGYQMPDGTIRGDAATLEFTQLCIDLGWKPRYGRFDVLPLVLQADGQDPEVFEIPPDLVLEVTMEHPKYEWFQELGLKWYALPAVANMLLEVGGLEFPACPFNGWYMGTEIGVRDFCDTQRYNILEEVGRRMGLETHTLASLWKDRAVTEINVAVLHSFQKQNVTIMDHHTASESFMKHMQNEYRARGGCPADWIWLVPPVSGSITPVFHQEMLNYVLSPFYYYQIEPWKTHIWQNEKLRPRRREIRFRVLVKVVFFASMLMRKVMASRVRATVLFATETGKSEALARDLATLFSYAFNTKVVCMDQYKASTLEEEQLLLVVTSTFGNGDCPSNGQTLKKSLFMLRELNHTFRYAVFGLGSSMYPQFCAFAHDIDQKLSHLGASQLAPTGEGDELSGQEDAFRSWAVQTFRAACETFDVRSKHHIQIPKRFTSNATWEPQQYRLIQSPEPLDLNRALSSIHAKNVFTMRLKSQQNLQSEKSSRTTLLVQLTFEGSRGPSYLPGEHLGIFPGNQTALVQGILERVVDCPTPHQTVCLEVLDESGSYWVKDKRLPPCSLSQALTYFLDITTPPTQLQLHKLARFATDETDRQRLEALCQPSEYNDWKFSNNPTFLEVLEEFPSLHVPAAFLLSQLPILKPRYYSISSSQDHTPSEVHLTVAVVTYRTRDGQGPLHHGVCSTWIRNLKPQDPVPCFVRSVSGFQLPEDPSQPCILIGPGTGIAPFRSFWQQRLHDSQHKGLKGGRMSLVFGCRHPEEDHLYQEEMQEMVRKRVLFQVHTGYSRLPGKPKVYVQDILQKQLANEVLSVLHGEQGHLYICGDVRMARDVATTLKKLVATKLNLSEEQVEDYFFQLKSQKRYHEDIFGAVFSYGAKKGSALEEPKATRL
Put plainly: (§1) Inhibition of inducible nitric oxide synthase (iNOS) in mice.

The species entered for assay [2] is Mus musculus. Put plainly: Selectivity ratio of IC50 of nNOS to IC50 of iNOS.
Assay [3] has as its target Nitric oxide synthase 1 (Mus musculus, UniProt Q9Z0J4). Put plainly: (§2) Inhibition of neuronal nitric oxide synthase (nNOS) in mice.
For assay [4], the target named is T2, Nitric oxide synthase, inducible (Mus musculus) (UniProt P29477).
T2 sequence (whole entry): T1 sequence (P29477 whole entry)
Described as §1. The settings on record: concentration not given here.

The target in assay [5] is Nitric oxide synthase 1 (Mus musculus) (UniProt Q9Z0J4). Described as §2. The settings on record: concentration not given here.
Nitric oxide synthase 1 (Mus musculus), sequence (Q9Z0J4 whole entry): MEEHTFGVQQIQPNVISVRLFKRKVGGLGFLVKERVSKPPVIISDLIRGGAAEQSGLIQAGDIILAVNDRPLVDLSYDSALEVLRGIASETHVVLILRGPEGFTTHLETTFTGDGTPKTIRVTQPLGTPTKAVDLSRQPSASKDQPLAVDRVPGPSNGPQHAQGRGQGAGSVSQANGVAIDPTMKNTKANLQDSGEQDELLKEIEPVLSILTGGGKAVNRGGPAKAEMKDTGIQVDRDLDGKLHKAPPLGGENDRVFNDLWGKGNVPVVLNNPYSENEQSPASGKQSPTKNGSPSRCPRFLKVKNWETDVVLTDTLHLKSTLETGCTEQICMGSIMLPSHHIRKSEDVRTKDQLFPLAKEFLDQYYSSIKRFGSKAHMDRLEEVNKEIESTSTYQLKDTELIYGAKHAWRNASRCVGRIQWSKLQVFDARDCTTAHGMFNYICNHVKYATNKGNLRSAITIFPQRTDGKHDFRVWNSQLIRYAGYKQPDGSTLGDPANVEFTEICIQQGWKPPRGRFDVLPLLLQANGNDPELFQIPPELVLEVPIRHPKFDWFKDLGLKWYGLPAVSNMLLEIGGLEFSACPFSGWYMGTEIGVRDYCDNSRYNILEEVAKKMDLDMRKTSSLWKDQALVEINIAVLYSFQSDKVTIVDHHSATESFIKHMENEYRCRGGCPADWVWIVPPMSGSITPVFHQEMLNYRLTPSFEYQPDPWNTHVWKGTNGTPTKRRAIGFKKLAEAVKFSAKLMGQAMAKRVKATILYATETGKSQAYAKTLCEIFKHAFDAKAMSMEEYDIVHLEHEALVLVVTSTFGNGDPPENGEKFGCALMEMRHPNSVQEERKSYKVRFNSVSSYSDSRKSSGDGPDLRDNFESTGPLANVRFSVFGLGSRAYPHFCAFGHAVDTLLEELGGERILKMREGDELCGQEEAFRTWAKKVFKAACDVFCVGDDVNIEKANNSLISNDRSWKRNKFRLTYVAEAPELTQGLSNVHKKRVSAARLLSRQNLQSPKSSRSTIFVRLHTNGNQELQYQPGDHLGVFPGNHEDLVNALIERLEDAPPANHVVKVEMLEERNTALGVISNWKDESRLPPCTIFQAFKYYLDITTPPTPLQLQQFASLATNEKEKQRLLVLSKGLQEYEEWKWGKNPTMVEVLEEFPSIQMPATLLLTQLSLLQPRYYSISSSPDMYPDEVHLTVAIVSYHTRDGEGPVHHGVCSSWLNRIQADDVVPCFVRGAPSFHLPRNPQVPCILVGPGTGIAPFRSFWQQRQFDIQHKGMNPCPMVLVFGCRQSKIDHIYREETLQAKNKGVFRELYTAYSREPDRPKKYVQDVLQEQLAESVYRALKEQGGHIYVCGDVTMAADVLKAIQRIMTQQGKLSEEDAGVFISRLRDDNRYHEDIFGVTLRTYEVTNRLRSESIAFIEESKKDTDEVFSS

Nitric oxide synthase 1, sequence (Q9Z0J4 whole entry): as above

With `C[C@@H]1N=C(N)O[C@@H]1C`, the IC50 in assay [1] amounted to 150 nM; in assay [3] it was 1600 nM. In addition, in assay [2], the Selectivity came to 11.
Regarding `CCC1CN=C(N)O1` (stereo not given), the IC50 in assay [1] was found to be 280 nM; in assay [3], 1800 nM. Further, the Selectivity in assay [2] stood at 6.4.
With `CC[C@H]1OC(N)=N[C@H]1C`, the values for the half-inhibitory concentration (IC50) in assay [1] and in assay [3] were 160 nM and 850 nM, respectively. Also, the Selectivity in assay [2] is 5.3.
Regarding `C[C@H]1CC(N)=N[C@@H]2[C@H](Cl)[C@@H]21`, in assay [2], the Selectivity is 5.
As for `CC1CN=C(N)O1` (stereo not given), the IC50 in assay [1] was 74 nM; in assay [3], 1400 nM. Further, the Selectivity in assay [2] was 19.
Turning to `CC[C@@H]1N=C(N)O[C@H]1CC`, the IC50 was 56 nM in assay [1] and 2500 nM in assay [3]. The Selectivity in assay [2] worked out at 45.
As for `C[C@H]1CC(=N)N[C@@H]2[C@H](Cl)[C@@H]21`, the IC50 came out at 3 nM in assay [1] and 15 nM in assay [3].
Consider `NC1=NCC(CBr)O1` (stereo not given), for which the IC50 in assay [1] amounted to 500 nM; in assay [3], 400 nM. Moreover, the Selectivity in assay [2] amounted to 0.8.
For the compound `CCC[C@@H]1N=C(N)O[C@H]1C`, the IC50 was determined as 120 nM in assay [1] and 570 nM in assay [3]. Further, the Selectivity in assay [2] was 4.8.
On to `CCCCC[C@@H]1N=C(N)O[C@@H]1C`, for which the values for the 50% inhibitory concentration (IC50) in assay [1] and in assay [3] were 230 nM and 3600 nM, respectively. Besides, the Selectivity in assay [2] amounted to 16.
Regarding `CNC(=N)NCCC[C@H](N)C(=O)O` [TILARGININE], 4300 nM corresponded to half-maximal inhibition in assay [3] (IC50).
For `CCC[C@@H]1N=C(N)O[C@H]1CCC`, the IC50 was 2500 nM in assay [1] and 73000 nM in assay [3]. In addition, the Selectivity in assay [2] amounted to 29.
Regarding `NC1=NC(c2ccccc2)CO1` (stereo not given), the inhibition worked out at 28% in assay [4] and 18% in assay [5].
In the case of `N=C(NCCC[C@H](N)C(=O)O)N[N+](=O)[O-]` [NITROARGININE], the IC50 in assay [1] worked out at 80000 nM; in assay [3] it was 500 nM. The Selectivity in assay [2] is 0.0063.
For `CCC1COC(N)=N1` (stereo not given), the IC50 in assay [1] amounted to 1600 nM; in assay [3], 2800 nM. Also, the Selectivity in assay [2] was 1.8.
As for `CC[C@@H]1N=C(N)O[C@@H]1CC`, the half-maximal inhibitory concentration (IC50) in assay [1] amounted to 130 nM; in assay [3] it was 1200 nM.
With `CC1COC(N)=N1` (stereo not given), the IC50 in assay [1] turned out to be 1500 nM; in assay [3] it was 9800 nM. For the same compound, the Selectivity in assay [2] was 6.5.
As to `CC[C@@H]1N=C(N)O[C@H]1C`, the figures for the IC50 in assay [1] and in assay [3] were 170 nM and 2300 nM, respectively. Also, the Selectivity in assay [2] was found to be 14.
In the same order, the values of `CC[C@@H]1N=C(N)O[C@@H]1C` are 120 nM, 680 nM and 5.7.
For `NC1=NCCO1`, the IC50 is 7900 nM in assay [1] and 34000 nM in assay [3]. Also, the Selectivity in assay [2] was 4.3.
With `CCC[C@@H]1N=C(N)O[C@@H]1C`, the IC50 turned out to be 41 nM in assay [1] and 920 nM in assay [3]. The Selectivity in assay [2] amounted to 22.
Turning to `CCCCC[C@@H]1N=C(N)O[C@H]1C`, the IC50 was determined as 500 nM in assay [1] and 790 nM in assay [3]. The Selectivity in assay [2] is 1.6.
Turning to `CCC[C@@H]1N=C(N)O[C@@H]1CCC`, the IC50 in assay [1] was found to be 6800 nM; in assay [3], 57000 nM. Further, the Selectivity in assay [2] was 8.4.
`CC[C@@H]1OC(N)=N[C@H]1C`: the half-maximal inhibitory concentration (IC50) was 120 nM in assay [1] and 1700 nM in assay [3]. Besides, the Selectivity in assay [2] is 14.

Values taken from ChEMBL document CHEMBL1139446, “4,5-Disubstituted-1,3-oxazolidin-2-imine derivatives: a new class of orally bioavailable nitric oxide synthase inhibitor” (Bioorg Med Chem Lett, 2004).
